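These data come from cells grown in 96-well plates and exposed to compound for 48 hours at five concentrations. TGI marks complete inhibition of growth.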
Experiments:
Experiment in all cases: inhibition of tumour cell growth, NCI panel, 48 h
[1] = test system: KM12 colon
[2] = test system: HL-60(TB) leukemia
[3] = test system: COLO 205 colon
[4] = test system: ACHN renal
[5] = test system: SNB-19 CNS
[6] = test system: HOP-18 NSCLC
[7] = test system: SK-MEL-2 melanoma
[8] = test system: SF-539 CNS
[9] = test system: EKVX NSCLC
[10] = test system: HOP-62 NSCLC
[11] = test system: OVCAR-5 ovarian
[12] = test system: XF 498 CNS
[13] = test system: A498 renal
[14] = test system: UACC-257 melanoma
[15] = test system: U251 CNS
[16] = test system: LXFL 529 NSCLC
[17] = test system: NCI-H23 lung
[18] = test system: SK-OV-3 ovarian
[19] = test system: SF-295 CNS
[20] = test system: SK-MEL-28 melanoma
[21] = test system: CCRF-CEM leukemia
[22] = test system: TK-10 renal
[23] = test system: IGROV1 ovarian
[24] = test system: 786-0 renal
[25] = test system: HT29 colon
[26] = test system: SNB-78 CNS
[27] = test system: CAKI-1 renal
[28] = test system: NCI-H226 lung
[29] = test system: SNB-75 CNS
[30] = test system: M14 melanoma
[31] = test system: NCI-H522 lung
[32] = test system: MALME-3M melanoma
[33] = test system: RXF 393 renal
[34] = test system: SR leukemia
[35] = test system: OVCAR-3 ovarian
[36] = test system: K-562 leukemia
[37] = test system: DLD-1 colon
[38] = test system: SW-620 colon
[39] = test system: UO-31 renal
[40] = test system: A549 NSCLC
[41] = test system: OVCAR-8 ovarian
[42] = test system: HCT-15 colon
[43] = test system: NCI-H460 lung
[44] = test system: DMS 273 small cell lung
[45] = test system: SF-268 CNS
[46] = test system: MOLT-4 leukemia
[47] = test system: OVCAR-4 ovarian
[48] = test system: UACC-62 melanoma
[49] = test system: LOX IMVI melanoma
[50] = test system: M19-MEL melanoma
[51] = test system: KM20L2 colon
[52] = test system: SN12C renal
[53] = test system: DMS 114 small cell lung
[54] = test system: HCT-116 colon

Measured: TGI

CC(C)(C)c1cc(C#N)c2c(c1)C(=O)OC2(c1ccccc1)c1ccccc1C#N (centres undefined)
> 100 µM: all assays above
